Test results taken from US10287298B2, “Nitrogen-containing analogs of salinomycin, synthesis and use against cancer stem cells and malaria” (Centre National de la Recherche Scientifique (CNRS), priority 2014, dated 2019).
Where two headings read alike, the source gives them in different places.

How the values were obtained:
HMLER CD24− cells [1] = experiment: Cell viability assay (CellTiter-Blue), IC50 assessment; type: cell-based, Human; settings: for IC50: Homo sapiens, read-out: IC50 CD24−; for activity against CD24 cells compared with salinomycine: comparison of the IC50 results
Protocol: (§1) FIG. 1 represents viability of HMLER CD24− cells (full line) and HMLER CD24+ cells (dotted line) at different concentration of salinomycine (1A), AM5 […] or AM13 (1D).
(§2) Cell viability assay was carried out by plating 1000 cells per well in 96-well plates. NAC (2 mM, A9165 Sigma) or DFO (1 mM) were pretreated 2 hours prior to the compound treatment. CellTiter-Blue® Reagent (Promega; G3582) (20 μl/well) was added after 24, 48, or 72 hours treatment and cells were incubated for 1 hour before recording fluorescence (560(20)Ex/590(10)Em) using a Perkin Elmer Wallac 1420 Victor2 Microplate Reader.

HMLER CD24+ cells = experiment: as above; type: cell-based; settings: Homo sapiens, read-out: IC50 CD24+
Protocol: as §1, §2

HMLER CD24− cells [2] = experiment: Cell proliferation and formation of mammospheres; type: cell-based, Human
Description: FIG. 2 is a representative phase contrast photomicrographs of mammospheres formed after 11 days in the absence of any added compound (Control) or in the presence of a defined amount of salinomycine, AM5, AM9 or AM13. […] The size of the mammospheres is correlated with progenitor cell proliferation, whereas the number of mammospheres formed after serial passages at clonal density is correlated with the self-renewal capacity of primitive Cancer Stem Cells. […]
FIG. 9 represents images of the third generation of mammospheres formed from individual HMLER CD24low cells treated during 7 days with the indicated drug. The size of the mammospheres is correlated with progenitor cell proliferation capacity, whereas the number of mammospheres formed after serial passages at clonal density is correlated with the self-renewal capacity of primitive Cancer Stem Cells.
AM5, AM9, AM13 and salinomycine were assessed for their capability to inhibit cell proliferation and formation of mammospheres. […]
AM5 and AM23 and salinomycine were assessed for their capability to inhibit cell proliferation and formation of mammospheres.

[3] = HMLER CD24− cells, cell viability
[4] = HMLER CD24+ cells, cell viability

| Structure (SMILES) | IC50 (HMLER CD24− cells [1]; [3]) [nM] | IC50 (HMLER CD24+ cells; [4]) [nM] | activity against CD24 cells compared with salinomycine (HMLER CD24− cells [1]) | also measured |
| --- | --- | --- | --- | --- |
| CCC(C(=O)O)[C@H]1CC[C@H](C)C([C@@H](C)[C@H](O)[C@H](C)C(=O)[C@H](CC)[C@H]2O[C@]3(C=CC(=O)[C@]4(CC[C@@](C)([C@H]5CC[C@](O)(CC)[C@H](C)O5)O4)O3)[C@H](C)C[C@@H]2C)O1 (stereo partly drawn) [AM6] |  |  |  | IC50 (HMLER CD24− cells [1]): 6180 nM; IC50 (HMLER CD24+ cells): 12800 nM |
| CCC(C(=O)OC)[C@H]1CC[C@H](C)C([C@@H](C)[C@H](O)[C@H](C)C(=O)[C@H](CC)[C@H]2O[C@]3(C=C[C@@H](OC(C)=O)[C@]4(CC[C@@](C)([C@H]5CC[C@](O)(CC)[C@H](C)O5)O4)O3)[C@H](C)C[C@@H]2C)O1 (stereo partly drawn) [AM7] | 7250 | 12500 |  |  |
| CCC(C(=O)O)[C@H]1CC[C@H](C)C([C@@H](C)[C@H](O)[C@H](C)C(=O)[C@H](CC)[C@H]2O[C@]3(C=C[C@@H](NOCc4ccccc4)[C@]4(CC[C@@](C)([C@H]5CC[C@](O)(CC)[C@H](C)O5)O4)O3)[C@H](C)C[C@@H]2C)O1 (stereo partly drawn) [AM8] | 1020 | 8060 | significantly improved activity |  |
| C#CCN[C@@H]1C=C[C@]2(O[C@H]([C@@H](CC)C(=O)[C@@H](C)[C@@H](O)[C@H](C)C3O[C@@H](C(CC)C(=O)OC)CC[C@@H]3C)[C@@H](C)C[C@H]2C)O[C@@]12CC[C@@](C)([C@H]1CC[C@](O)(CC)[C@H](C)O1)O2 (stereo partly drawn) [AM9, Me-Sal-propargylamine] | 11800 | 22000 | lower efficiency than salinomycine | effect against tumorsphere formation / CSC maintenance (HMLER CD24− cells [2]): ineffective; inhibition of cell proliferation (HMLER CD24− cells [2]; at 500 nM): did not inhibit cell proliferation |
| C#CCN[C@@H]1C=C[C@]2(O[C@H]([C@@H](CC)C(=O)[C@@H](C)[C@@H](O)[C@H](C)C3O[C@@H](C(CC)C(=O)OCC#C)CC[C@@H]3C)[C@@H](C)C[C@H]2C)O[C@@]12CC[C@@](C)([C@H]1CC[C@](O)(CC)[C@H](C)O1)O2 (stereo partly drawn) [AM10] | 10000 | 19700 | lower efficiency than salinomycine |  |
| CCC(C(=O)O)[C@H]1CC[C@H](C)C([C@@H](C)[C@H](O)[C@H](C)C(=O)[C@H](CC)[C@H]2O[C@]3(C=C[C@@H](NCc4ccccc4)[C@]4(CC[C@@](C)([C@H]5CC[C@](O)(CC)[C@H](C)O5)O4)O3)[C@H](C)C[C@@H]2C)O1 (stereo partly drawn) [AM11] | 800 | 6700 | significantly improved activity |  |
| CCCCCCN[C@@H]1C=C[C@]2(O[C@H]([C@@H](CC)C(=O)[C@@H](C)[C@@H](O)[C@H](C)C3O[C@@H](C(CC)C(=O)O)CC[C@@H]3C)[C@@H](C)C[C@H]2C)O[C@@]12CC[C@@](C)([C@H]1CC[C@](O)(CC)[C@H](C)O1)O2 (stereo partly drawn) [AM12] | 1790 | 6920 | significantly improved activity |  |
| CCCCCCCCCCCCN[C@@H]1C=C[C@]2(O[C@H]([C@@H](CC)C(=O)[C@@H](C)[C@@H](O)[C@H](C)C3O[C@@H](C(CC)C(=O)O)CC[C@@H]3C)[C@@H](C)C[C@H]2C)O[C@@]12CC[C@@](C)([C@H]1CC[C@](O)(CC)[C@H](C)O1)O2 (stereo partly drawn) [AM13, Sal-Dodecylamine] | 72.7 | 3190 | significantly improved activity | inhibition of cell proliferation, efficacy in comparison with salinomycine (HMLER CD24− cells [2]; at 30 nM): ten-fold improved efficacy; number and size of mammosphere (HMLER CD24− cells [2]; mammospheres after 11 days, low nanomolar concentrations): reduced the number and the size of mammosphere |
| C#CCCCN[C@@H]1C=C[C@]2(O[C@H]([C@@H](CC)C(=O)[C@@H](C)[C@@H](O)[C@H](C)C3O[C@@H](C(CC)C(=O)O)CC[C@@H]3C)[C@@H](C)C[C@H]2C)O[C@@]12CC[C@@](C)([C@H]1CC[C@](O)(CC)[C@H](C)O1)O2 (stereo partly drawn) [AM16] | 300 | 1170 |  |  |
| C#CCN[C@H]1C=C[C@]2(O[C@H]([C@@H](CC)C(=O)[C@@H](C)[C@@H](O)[C@H](C)C3O[C@@H](C(CC)C(=O)O)CC[C@@H]3C)[C@@H](C)C[C@H]2C)O[C@@]12CC[C@@](C)([C@H]1CC[C@](O)(CC)[C@H](C)O1)O2 (stereo partly drawn) [AM17] | 100 | 2000 |  |  |
| CCC(C(=O)NO)[C@H]1CC[C@H](C)C([C@@H](C)[C@H](O)[C@H](C)C(=O)[C@H](CC)[C@H]2O[C@]3(C=C/C(=N\O)[C@]4(CC[C@@](C)([C@H]5CC[C@](O)(CC)[C@H](C)O5)O4)O3)[C@H](C)C[C@@H]2C)O1 (stereo partly drawn) [AM18] | 100 | 2500 |  |  |
| CCCN[C@@H]1C=C[C@]2(O[C@H]([C@@H](CC)C(=O)[C@@H](C)[C@@H](O)[C@H](C)C3O[C@@H](C(CC)C(=O)O)CC[C@@H]3C)[C@@H](C)C[C@H]2C)O[C@@]12CC[C@@](C)([C@H]1CC[C@](O)(CC)[C@H](C)O1)O2 (stereo partly drawn) [AM21] | 340 | 6500 |  |  |
| C=CCN[C@@H]1C=C[C@]2(O[C@H]([C@@H](CC)C(=O)[C@@H](C)[C@@H](O)[C@H](C)C3O[C@@H](C(CC)C(=O)O)CC[C@@H]3C)[C@@H](C)C[C@H]2C)O[C@@]12CC[C@@](C)([C@H]1CC[C@](O)(CC)[C@H](C)O1)O2 (stereo partly drawn) [AM22] | 300 | 1530 |  |  |
| CCC(C(=O)O)[C@H]1CC[C@H](C)C([C@@H](C)[C@H](O)[C@H](C)C(=O)[C@H](CC)[C@H]2O[C@]3(C=C[C@@H](NC4CCC4)[C@]4(CC[C@@](C)([C@H]5CC[C@](O)(CC)[C@H](C)O5)O4)O3)[C@H](C)C[C@@H]2C)O1 (stereo partly drawn) [AM24] | 107 | 1400 |  |  |
| CCC(C(=O)O)[C@H]1CC[C@H](C)C([C@@H](C)[C@H](O)[C@H](C)C(=O)[C@H](CC)[C@H]2O[C@]3(C=C[C@@H](NC4CCCC4)[C@]4(CC[C@@](C)([C@H]5CC[C@](O)(CC)[C@H](C)O5)O4)O3)[C@H](C)C[C@@H]2C)O1 (stereo partly drawn) [AM25] | 108 | 1360 |  |  |
| CCC(C(=O)O)[C@H]1CC[C@H](C)C([C@@H](C)[C@H](O)[C@H](C)C(=O)[C@H](CC)[C@H]2O[C@]3(CC[C@@H](NCC(C)C)[C@]4(CC[C@@](C)([C@H]5CC[C@](O)(CC)[C@H](C)O5)O4)O3)[C@H](C)C[C@@H]2C)O1 (stereo partly drawn) [AM26] | 1150 | 10100 |  |  |
| CCC(C(=O)NO)[C@H]1CC[C@H](C)C([C@@H](C)[C@H](O)[C@H](C)C(=O)[C@H](CC)[C@H]2O[C@]3(C=C[C@@H](NC4CC4)[C@]4(CC[C@@](C)([C@H]5CC[C@](O)(CC)[C@H](C)O5)O4)O3)[C@H](C)C[C@@H]2C)O1 (stereo partly drawn) [AM28] | 6430 | 5830 |  |  |
| CC(=O)O[C@H]1C(=O)[C@@]2(C)[C@H]([C@H](OC(=O)c3ccccc3)[C@]3(O)C[C@H](OC(=O)[C@H](O)[C@@H](NC(=O)c4ccccc4)c4ccccc4)C(C)=C1C3(C)C)[C@]1(OC(C)=O)CO[C@@H]1C[C@@H]2O [paclitaxel, reference compound] |  |  |  | effect against tumorsphere formation / CSC maintenance (HMLER CD24− cells [2]): poorly effective |
